Test results: patent US20250236616A1, “IMMUNOMODULATING AZALIDES” (Zoetis Services LLC, priority 2021, published 2025)
pIC50: −log10 of the molar value.

Columns and labels:
[1] = tested on: IL-1β; experiment: Whole bovine blood assay, LPS-induced IL-1β (inhibition / overstimulation); assay type: cell-based; conditions: drug concentration giving overstimulation (OS) of LPS-induced IL-1β
Summary of the method: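 Fresh heparinized bovine whole blood was preincubated with compound at varying concentrations for 4 h at 37 °C, then stimulated with 1 μg/mL LPS for 18 h. Plasma IL-1β was measured by MSD chemiluminescent immunoassay and normalized to total protein. Values cover inhibition and concentration-dependent overstimulation.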

[2] = tested on: TNF-α; experiment: Whole bovine blood assay, LPS-induced TNF-α; assay type: cell-based; conditions: Bos taurus, fresh whole bovine blood, LPS stimulant
Summary of the method: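 Fresh heparinized bovine whole blood was preincubated with compound 4 h at 37 °C, then stimulated with LPS (final 1 μg/mL) for 18 h at 37 °C. Plasma TNF-α was quantified by MSD U-Plex chemiluminescent immunoassay, normalized to total protein (BCA), and IC50 taken for LPS-induced TNF-α inhibition.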

[3] = tested on: P. multocida 46572; experiment: In vivo mouse lung infection challenge model (murine efficacy), survival; set-up: species or system CD-1 female mice; conditions: P. multocida 46572 intranasal challenge; 20 mg/kg subcutaneous; harmonized relative to vehicle (−) and M9 (+) controls
Method: The challenge organism was P. multocida 46572. Target challenge concentration was 5×10^2 CFU/mouse. Isolated colonies from overnight growth (37° C. with 5% CO2) on trypticase soy agar (TSA II) blood plates were transferred to room temperature Brain Heart Infusion Broth (BHIB). The broth culture was incubated 3.5-4 hours to approximately mid-log phase of growth, as measured by forward light scatter at 600 nm (OD600, 0.200). The culture was centrifuged to collect the bacterial pellet. The pellet was re-suspended in BHIB and adjusted to provide an approximate concentration of 2.7 log 10 colony forming units (CFU) in 0.04 mL at the highest concentration. The challenge inoculum concentration was confirmed by serial dilutions of the inoculum for CFU enumeration. On Day −5, CD −1 female mice were received. Mice were given standard rodent diet and water ad libitum. On Day 0, bacterial inoculum (0.04 mL) was administered to each mouse (n=36) intranasally. Compounds of the invention were dosed at 20 mg/kg (0.1 mL) in a buffered (˜pH 5.4) propylene glycol, monothioglycerol and water solution by subcutaneous injection. Animals were observed from Days 1-10. The study was terminated on Day 10. In addition, some treatment groups were sampled at 6, 24, and 48 hours post bacterial challenge for RNA sequence analysis of lung tissue.
The murine efficacy model (P.multocida challenge) was optimized, and the treatment group size was powered to be able to observe statistically significant improvement of survival to expected ranges for immunomodulatory compounds. The experimental design was a randomized complete block design. Mice were individually identified and treatment groups comingled within a cage, with every treatment group equally represented across cages. Mortality was the primary variable. Mortality data was analyzed using a generalized mixed model with fixed effect of treatment and random effect of block. Survival time was also analyzed using the SAS PHREG (survival analysis) procedure to examine whether there were significant differences between treatment groups and the control group. Numerous compounds of the invention and M9 (positive control) were tested in this model at a dose of 20 mg/kg (Table 3). Typical percent survival for no treatment control is in the range of 0-20% based on study to study variation in challenge inoculum and rate of infection. […] Mouse survival for M9 was about 90-100%, further supporting its residual antibacterial properties against the bacterial strain.

[4] = tested on: IL-6; experiment: Whole bovine blood assay, LPS-induced IL-6; assay type: cell-based; conditions: Bos taurus, fresh whole bovine blood, LPS stimulant; top drug concentration 250 μM
[5] = Bos taurus, 18 h, top concentration 250 μM
[6] = Bos taurus, 18 h, dose of 500 μM (footnote ^)

With CC[C@H]1OC(=O)[C@H](C)[C@@H](O)[C@H](C)[C@@H](O[C@@H]2O[C@H](C)C[C@H](N(C)S(=O)(=O)c3ccccc3)[C@H]2Oc2ccc(OC)c(OC)c2)[C@](C)(O)C[C@@H](C)CN[C@H](C)[C@@H](O)[C@]1(C)O [Example A-8, N-((2S,3R,4S,6R)-3-(3,4-dimethoxyphenoxy)-2-(((2R,3S,4R,5R,8R,10R,11R,12S,13S,14R)-2-ethyl-3,4, 10, 13-tetrahydroxy-3,5,8,10,12,14-hexamethyl-15-oxo-1-oxa-6-azacyclopentadecan-11-yl)oxy)-6-methyltetrahydro-2H-pyran-4-yl)-N-methylbenzenesulfonamide] the minimal effective concentration [1, 5] was 100 µM, the pIC50 ([2]; top drug concentration 250 μM) was 4.40 and the “% Survival” value [3] was 20%.
CC[C@H]1OC(=O)[C@H](C)[C@@H](O[C@H]2C[C@@](C)(OC)[C@](O)(CNCCCN3CCCCC3)[C@H](C)O2)[C@H](C)[C@@H](O[C@@H]2O[C@H](C)C[C@H](N(C)S(=O)(=O)c3ccc(Cl)cc3)[C@H]2O)[C@](C)(O)C[C@@H](C)CN[C@H](C)[C@@H](O)[C@]1(C)O [Example B-58, 4-chloro-N-((2S,3R,4S,6R)-2-(((2R,3S,4R,5R,8R,10R,11R,12S,13S, 14R)-2-ethyl-3,4,10-trihydroxy-13-(((2R,4R,5S,6S)-5-hydroxy-4-methoxy-4,6-dimethyl-5-(((3-(piperidin-1-yl)propyl)amino)methyl)tetrahydro-2H-pyran-2-yl)oxy)-3,5,8,10,12,14-hexamethyl-15-oxo-1-oxa-6-azacyclopentadecan-11-yl)oxy)-3-hydroxy-6-methyltetrahydro-2H-pyran-4-yl)-N-methylbenzenesulfonamide] was tested, and the minimal effective concentration [1, 5] was 40 µM, the pIC50 ([2]; top drug concentration 250 μM) was 4.54 and the “% Survival” value [3] was 32%. The pIC50 [4] was 4.12.
CCCNC[C@]1(O)[C@H](C)O[C@@H](O[C@H]2[C@H](C)[C@@H](O[C@@H]3O[C@H](C)C[C@H](N(Cc4ccc(OC)cc4)S(=O)(=O)c4ccccc4)[C@H]3O)[C@](C)(O)C[C@@H](C)CN[C@H](C)[C@@H](O)[C@](C)(O)[C@@H](CC)OC(=O)[C@@H]2C)C[C@@]1(C)OC [Example B-148, N-((2S,3R,4S,6R)-2-(((2R,3S,4R,5R,8R,10R,11R,12S,13S,14R)-2-ethyl-3,4,10-trihydroxy-13-(((2R,4R,5S,6S)-5-hydroxy-4-methoxy-4,6-dimethyl-5-((propylamino)methyl)tetrahydro-2H-pyran-2-yl)oxy)-3,5,8,10, 12, 14-hexamethyl-15-oxo-1-oxa-6-azacyclopentadecan-11-yl)oxy)-3-hydroxy-6-methyltetrahydro-2H-pyran-4-yl)-N-(4-methoxybenzyl)benzenesulfonamide] was tested, and the minimal effective concentration [1, 5] was 2 µM, the pIC50 ([2]; top drug concentration 250 μM) was 5.70 and the “% Survival” value [3] was 68%. For the same compound, the pIC50 [4] was 5.40.
With CC[C@H]1OC(=O)[C@H](C)[C@@H](O)[C@H](C)[C@@H](O[C@@H]2O[C@H](C)C[C@H](N(C)S(=O)(=O)c3ccccc3)[C@H]2Oc2ccccc2)[C@](C)(O)C[C@@H](C)CN(C)[C@H](C)[C@@H](O)[C@]1(C)O [Example A-3, N-((2S,3R,4S,6R)-2-(((2R,3S,4R,5R,8R,10R,11R,12S,13S,14R)-2-ethyl-3,4, 10,13-tetrahydroxy-3,5,6,8,10, 12,14-heptamethyl-15-oxo-1-oxa-6-azacyclopentadecan-11-yl)oxy)-6-methyl-3-phenoxytetrahydro-2H-pyran-4-yl)-N-methylbenzenesulfonamide] the minimal effective concentration [1, 5] was 14 µM, the pIC50 ([2]; top drug concentration 250 μM) was 4.64 and the “% Survival” value [3] was 24%. The pIC50 [4] was 4.37.
In the case of CCCNC[C@@]1(O)[C@@H](C)OC(O[C@H]2[C@H](C)[C@@H](O[C@@H]3O[C@H](C)C[C@H](N(C)S(=O)(=O)c4ccccc4)[C@H]3Oc3ccccn3)[C@](C)(O)C[C@@H](C)CN[C@H](C)[C@@H](O)[C@](C)(O)[C@@H](CC)OC(=O)[C@@H]2C)C[C@]1(C)OC (stereo partly drawn) [Example B-130], the minimal effective concentration ([1]; top concentration 250 μM) was 6 µM and the “% Survival” value [3] was 42%.
CCCNC[C@]1(O)[C@H](C)O[C@@H](O[C@H]2[C@H](C)[C@@H](O[C@@H]3O[C@H](C)C[C@H](N(C)S(=O)(=O)c4ccc(Cl)cc4)[C@H]3O)[C@](C)(O)C[C@@H](C)CN[C@H](C)[C@@H](O)[C@](C)(O)[C@@H](CC)OC(=O)[C@@H]2C)C[C@@]1(C)OC [Example B-60, 4-chloro-N-((2S,3R,4S,6R)-2-(((2R,3S,4R,5R,8R,10R,11R, 12S,13S, 14R)-2-ethyl-3,4,10-trihydroxy-13-(((2R,4R,5S,6S)-5-hydroxy-4-methoxy-4,6-dimethyl-5-((propylamino)methyl)tetrahydro-2H-pyran-2-yl)oxy)-3,5,8, 10, 12, 14-hexamethyl-15-oxo-1-oxa-6-azacyclopentadecan-11-yl)oxy)-3-hydroxy-6-methyltetrahydro-2H-pyran-4-yl)-N-methylbenzenesulfonamide] was tested, and the minimal effective concentration [1, 6] was 13 µM, the pIC50 ([2]; dose of 500 μM (footnote ^)) was 5.30 and the “% Survival” value [3] was 37%.
In the case of CCCNC[C@]1(O)[C@H](C)O[C@@H](O[C@H]2[C@H](C)[C@@H](O[C@@H]3O[C@H](C)C[C@H](N(C)S(=O)(=O)N(C)C4CCCCC4)[C@H]3O)[C@](C)(O)C[C@@H](C)CN[C@H](C)[C@@H](O)[C@](C)(O)[C@@H](CC)OC(=O)[C@@H]2C)C[C@@]1(C)OC [Example B-49, (2R,3S,4R,5R,8R,10R,11R,12S,13S,14R)-11-[(2S,3R,4S,6R)-4-[[cyclohexyl(methyl)sulfamoyl]-methylamino]-3-hydroxy-6-methyloxan-2-yl]oxy-2-ethyl-3,4,10-trihydroxy-13-[(2R,4R,5S,6S)-5-hydroxy-4-methoxy-4,6-dimethyl-5-(propylaminomethyl)oxan-2-yl]oxy-3,5,8,10,12,14-hexamethyl-1-oxa-6 azacyclopentadecan-15-one], the minimal effective concentration [1, 5] was 6 µM, the pIC50 ([2]; top drug concentration 250 μM) was 4.43 and the “% Survival” value [3] was 53%. For the same compound, the pIC50 [4] was 4.80.
CCCNC[C@]1(O)[C@H](C)O[C@@H](O[C@H]2[C@H](C)[C@@H](O[C@@H]3O[C@H](C)C[C@H](N(C)S(=O)(=O)N(C)Cc4ccc(Cl)cc4)[C@H]3O)[C@](C)(O)C[C@@H](C)CN[C@H](C)[C@@H](O)[C@](C)(O)[C@@H](CC)OC(=O)[C@@H]2C)C[C@@]1(C)OC [Example B-41] was tested, and the minimal effective concentration ([1]; top concentration 250 μM) was 6 µM and the “% Survival” value [3] was 52%.
In the case of CCCNC[C@]1(O)[C@H](C)OC(O[C@H]2[C@H](C)[C@@H](O[C@@H]3O[C@H](C)C[C@H](N(C)S(=O)(=O)c4nccn4C)[C@H]3Oc3ccc(F)cc3)[C@](C)(O)C[C@@H](C)CN[C@H](C)[C@@H](O)[C@](C)(O)[C@@H](CC)OC(=O)[C@@H]2C)C[C@@]1(C)OC (stereo partly drawn) [Example B-107, N-[(2S,3R,4S,6R)-2-[[(2R,3S,4R,5R,8R,10R,11R,12S,13S, 14R)-2-ethyl-3,4,10-trihydroxy-13-[(4R,5S,6S)-5-hydroxy-4-methoxy-4,6-dimethyl-5-(propylaminomethyl)oxan-2-yl]oxy-3,5,8, 10, 12, 14-hexamethyl-15-oxo-1-oxa-6-azacyclopentadec-11-yl]oxy]-3-(4-fluorophenoxy)-6-methyloxan-4-yl]-N, 1-dimethylimidazole-2-sulfonamide], the minimal effective concentration [1, 5] was 2 µM, the pIC50 ([2]; top drug concentration 250 μM) was 4.66 and the “% Survival” value [3] was 82%. The pIC50 [4] was 5.05.
With CCCNC[C@]1(O)[C@H](C)O[C@@H](O[C@H]2[C@H](C)[C@@H](O[C@@H]3O[C@H](C)C[C@H](N(C)S(=O)(=O)Nc4ccccc4)[C@H]3O)[C@](C)(O)C[C@@H](C)CN[C@H](C)[C@@H](O)[C@](C)(O)[C@@H](CC)OC(=O)[C@@H]2C)C[C@@]1(C)OC [Example B-48, (2R,3S,4R,5R,8R,10R,11R,12S,13S, 14R)-2-ethyl-3,4,10-trihydroxy-13-[(2R,4R,5S,6S)-5-hydroxy-4-methoxy-4,6-dimethyl-5-(propylaminomethyl)oxan-2-yl]oxy-11-[(2S,3R,4S,6R)-3-hydroxy-6-methyl-4-[methyl(phenylsulfamoyl)amino]oxan-2-yl]oxy-3,5,8,10,12,14-hexamethyl-15-oxo-1-oxa-6-azacyclopentadecane] the minimal effective concentration [1, 6] was 32 µM, the pIC50 ([2]; dose of 500 μM (footnote ^)) was 4.60 and the “% Survival” value [3] was 33%.
